Reference: US20150290176A1, “USE OF MTOR INHIBITORS TO TREAT VASCULAR COGNITIVE IMPAIRMENT” (THE BOARD OF REGENTS OF THE UNIVERSITY OF TEXAS SYSTEM, priority 2012, published 2015)
Where two headings read alike, the source gives them in different places.

Tests used:
[1] = Rapamycin levels in brain regions of AD mice chronically fed rapamycin-supplemented chow; assay type: in vivo; conditions: PDAPP transgenic (AD mice), mouse, oral, 2.24 mg/kg body weight/day, AD mice chronically fed rapamycin chow (2.24 mg/kg/day)
Description: The inventors used magnetic resonance imaging (MRI) arterial spin labeling (ASL) techniques in vivo, as well as other functional imaging, in vivo optical imaging, and behavioral and biochemical tools to determine whether rapamycin treatment affects the progression of established deficits in the transgenic PDAPP mouse model of Alzheimer's Disease (Galvan, et al., 2005; Hsia, et al., 1999; Mucke, et al., 2000) (“AD mice”). AD mice and unaffected littermates were treated with rapamycin after the onset of AD-like impairments at 7 months of age (Galvan, et al., 2005; Hsia, et al., 1999; Mucke, et al., 2000) for a total of 16 weeks. Rapamycin levels in brain regions of AD mice chronically fed with rapamycin ranged from 0.98 to 2.40 pg/mg. Levels in hippocampus were 1.55 pg/mg (see FIG. 5).
Rapamycin treatment. Mice were fed chow containing either microencapsulated enteric-coated rapamycin at 2.24 mg/kg or a control diet as described by Harrison et al., 2009. Rapamycin was used at 14 mg per kg food (verified by HPLC). On the assumption that the average mouse weighs 30 gm and consumes 5 gm of food/day, this dose supplied 2.24 mg rapamycin per kg body weight/day (Harrison, et al., 2009). All mice were given ad libitum access to rapamycin or control food and water for the duration of the experiment. Body weights and food intake were measured weekly. […]

cortical vessels = assay: In vivo 2-photon imaging of cortical vessel diameter; parameters: species or system mouse
Description: (§1) In vivo imaging experiments. Details of experimental procedures were identical to our previously published protocols (Zheng, et al., 2010). Briefly, mice were anesthetized with volatile isoflurane through a nosecone (3% induction, 1.5% maintenance). The depth of anesthesia was monitored by regular checking of whisker movement and the pinch withdrawal reflex of the hind limb and tail. Also, during surgery and imaging, three main vital signs including heart rate, respiratory rate, and oxygen saturation were periodically assessed by use of the MouseOx system (STARR Life Sciences). Body temperature was maintained at 37° C. by use of feedback-controlled heating pad (Gaymar T/Pump). Initially, the scalp was shaved, incised along the midline and retracted to expose the dorsal skull. Then removal of periosteum by forceps and cleaning of skull by a sterile cotton swab were performed. A stainless steel head plate was glutted (VetBond, 3M, St. Paul, Minn.) to dorsal skull and screwed to a custom-made stereotaxic frame. To create a thin-skull cranial window over the somotosensory cortex, skull was initially thinned by high-speed electric drill (Fine Science Tools, Foster City, Calif.) and subsequently thinned to approximate 50 μm by using a surgical blade under a dissecting microscope (Nikon SMZ800). […] The diameter of blood vessels was analyzed by Image J plugin vessel diameter. […]

[2] = Body weight and food intake during rapamycin feeding; assay type: in vivo, mouse
Description: Rapamycin treatment. Mice were fed chow containing either microencapsulated enteric-coated rapamycin at 2.24 mg/kg or a control diet as described by Harrison et al., 2009. Rapamycin was used at 14 mg per kg food (verified by HPLC). On the assumption that the average mouse weighs 30 gm and consumes 5 gm of food/day, this dose supplied 2.24 mg rapamycin per kg body weight/day (Harrison, et al., 2009). All mice were given ad libitum access to rapamycin or control food and water for the duration of the experiment. Body weights and food intake were measured weekly. […] Littermates (transgenic and non-transgenic mice) were housed together, thus we could not distinguish effects of genotype on food consumption. Even though there were no differences in food consumption, body weights of rapamycin-fed non-transgenic, but not transgenic, females increased moderately during treatment, (6.8% increase for rapamycin-fed vs control-fed non-transgenic females). The higher increase in body weight for non-transgenic animals is not unexpected, since non-transgenic animals of both genders tend to be slightly (1-3 g) heavier than AD transgenic.

AD mice = assay: Cerebral blood flow by MRI continuous arterial spin labeling; assay type: in vivo, mouse; conditions: rapamycin-fed 16 weeks, then L-NAME for 4 additional weeks
Description: Rapamycin treatment. Mice were fed chow containing either microencapsulated enteric-coated rapamycin at 2.24 mg/kg or a control diet as described by Harrison et al., 2009. Rapamycin was used at 14 mg per kg food (verified by HPLC). On the assumption that the average mouse weighs 30 gm and consumes 5 gm of food/day, this dose supplied 2.24 mg rapamycin per kg body weight/day (Harrison, et al., 2009). All mice were given ad libitum access to rapamycin or control food and water for the duration of the experiment. Body weights and food intake were measured weekly. […] Littermates (transgenic and non-transgenic mice) were housed together, thus we could not distinguish effects of genotype on food consumption. […]
Animal Preparation for Functional Neuroimaging. […] Respiration rate (90-130 bpm) and rectal temperature (37±0.5° C.) were continuously monitored. Heart rate and blood oxygen saturation level (SaO2) were recorded using a MouseOx system (STARR Life Science Corp., Oakmont, Pa.) and maintained within normal physiological ranges.
Cerebral Blood Flow. Quantitative CBF (with unit of […]) was measured using the MRI based continuous arterial spin labeling (CASL) techniques (Duong, et al., 2000; Muir, et al., 2008) on a horizontal 7T/30 cm magnet and a 40G/cm BGA12S gradient insert (Bruker, Billerica, Mass.). […]

[3] = test system: NO production in cortical vessels; assay: In vivo imaging of NO production in cortical vessels with NO-sensitive probe DAF-FM; parameters: species or system mouse; conditions: L-NAME 30 mg/kg intraperitoneally before rapamycin
Description: as §1

Structure (SMILES) | concentration at 16 weeks ([1]; hippocampus, read-out: Rapamycin levels in hippocampus) | concentration at 16 weeks ([1]; range over brain regions, read-out: Rapamycin levels in brain regions) | Increase in diameter of small and medium-sized cortical vessels (cortical vessels; rapamycin 10 mg/kg intraperitoneally, 10 min after administration) | Food consumption ([2]; control- vs rapamycin-fed groups) | Body weight increase, rapamycin-fed vs control-fed ([2]; non-transgenic females, during treatment) | Effect of L-NAME pretreatment on rapamycin-induced vasodilation (cortical vessels; L-NAME 30 mg/kg intraperitoneally before rapamycin) | CBF in rapamycin-fed AD mice injected with L-NAME (AD mice) | Effect of L-NAME pretreatment on rapamycin-induced NO release [3]
CO[C@H]1C[C@@H]2CC[C@@H](C)[C@@](O)(O2)C(=O)C(=O)N2CCCC[C@H]2C(=O)O[C@H]([C@H](C)C[C@@H]2CC[C@@H](O)[C@H](OC)C2)CC(=O)[C@H](C)/C=C(\C)[C@@H](O)[C@@H](OC)C(=O)[C@H](C)C[C@H](C)/C=C/C=C/C=C/1C [rapamycin] | 1.55 ng/g | 0.98 to 2.4 ng/g | 23-35% | comparable | 6.8% | – | – | –
COC(=O)[C@@H](N)CCCNC(=N)N[N+](=O)[O-] [L-NAME, L-NG-Nitroarginine methyl ester] | – | – | – | – | – | abrogated | CBF deficits comparable to control-fed AD mice | abrogated
